Assay results reported in patent US20200093807A1, “NEW USE OF RIFAMYCIN-NITROIMIDAZOLE CONJUGATE MOLECULE” (TenNor Therapeutics Limited, priority 2017, published 2020).
Values after ≈ are worked out from the molar mass of the structure shown. Where two headings read alike, the source gives them in different places.

Legend:
[1] = test system: Bifidobacterium longum ATCC 15707; assay: MIC, anaerobic agar dilution (CLSI); assay type: cell-based; conditions: ATCC15707, 35° C., 42-48 hours
[2] = test system: Gardnerella vaginalis ATCC 49145; assay: MIC, anaerobic agar dilution (CLSI); assay type: cell-based; conditions: ATCC49145, 35° C., 42-48 hours
[3] = test system: Bacteroides vulgatus MMX 8348; assay: MIC, anaerobic agar dilution (CLSI); assay type: cell-based; conditions: Phocaeicola vulgatus, MMX8348, 35° C., 42-48 hours
[4] = test system: Bacteroides uniformis MMX 1277; assay: MIC, anaerobic agar dilution (CLSI); assay type: cell-based; conditions: MMX1277
[5] = test system: Prevotella disiens MMX 3446; assay: MIC, anaerobic agar dilution (CLSI); assay type: cell-based; conditions: MMX3446, 35° C., 42-48 hours
[6] = test system: Mobiluncus (curtisii subsp. curtisii) ATCC 35241; assay: MIC, anaerobic agar dilution (CLSI); assay type: cell-based; conditions: ATCC35241, 35° C., 42-48 hours
[7] = test system: Fusobacterium nucleatum ATCC 25586; assay: MIC, anaerobic agar dilution (CLSI); assay type: cell-based; conditions: ATCC25586, 35° C., 42-48 hours
[8] = test system: Prevotella bivia ATCC 29303; assay: MIC, anaerobic agar dilution (CLSI); assay type: cell-based; conditions: ATCC29303, 35° C., 42-48 hours
[9] = test system: Fusobacterium nucleatum ATCC 10953; assay: MIC, anaerobic agar dilution (CLSI); assay type: cell-based; conditions: ATCC10953, 35° C., 42-48 hours
[10] = test system: Clostridium sporogenes ATCC 19404; assay: MIC, anaerobic agar dilution (CLSI); assay type: cell-based; conditions: ATCC19404, 35° C., 42-48 hours
[11] = test system: Peptostreptococcus (magnus) ATCC 14956; assay: MIC, anaerobic agar dilution (CLSI); assay type: cell-based; conditions: Finegoldia magna, ATCC14956, 35° C., 42-48 hours
Atopobium vaginae BAA-55 = assay: MIC, anaerobic agar dilution (CLSI); assay type: cell-based; conditions: Fannyhessea vaginae, BAA55
[12] = test system: Bacteroides gracilis ATCC 33236; assay: MIC, anaerobic agar dilution (CLSI); assay type: cell-based; conditions: Campylobacter gracilis, ATCC33236
[13] = test system: Lactobacillus gasseri ATCC 33323; assay: MIC, anaerobic agar dilution (CLSI); assay type: cell-based; conditions: ATCC33323
[14] = test system: Mobiluncus (mulieris) ATCC 35243; assay: MIC, anaerobic agar dilution (CLSI); assay type: cell-based; conditions: ATCC35243, 35° C., 42-48 hours
[15] = test system: Eubacterium (rectale) ATCC 33656; assay: MIC, anaerobic agar dilution (CLSI); assay type: cell-based; conditions: Agathobacter rectalis, ATCC33656, 35° C., 42-48 hours
[16] = test system: Clostridium perfringens (MET^R) MMX 3521; assay: microbe, parasite or virus in culture; assay type: cell-based
[17] = test system: Lactobacillus crispatus ATCC 33820; assay: MIC, anaerobic agar dilution (CLSI); assay type: cell-based; conditions: ATCC33820
[18] = test system: Lactobacillus jensenii ATCC 25258; assay: MIC, anaerobic agar dilution (CLSI); assay type: cell-based; conditions: ATCC25258
[19] = test system: Peptococcus (niger) ATCC 27731; assay: MIC, anaerobic agar dilution (CLSI); assay type: cell-based; conditions: ATCC27731, 35° C., 42-48 hours
[20] = test system: Veionella parvula ATCC 17745; assay: MIC, anaerobic agar dilution (CLSI); assay type: cell-based; conditions: 35° C., 42-48 hours
Bacterial Vaginosis (BV) = conditions: within 3 months; cited from earlier work
[21] = test system: Gardnerella vaginalis ATCC 14018; assay: MIC, anaerobic agar dilution (CLSI); assay type: cell-based; conditions: ATCC14018, 35° C., 42-48 hours
[22] = test system: Actinomyces naeslundii ATCC 12104; assay: MIC, anaerobic agar dilution (CLSI); assay type: cell-based; conditions: ATCC12104, 35° C., 42-48 hours
[23] = test system: Prevotella asaccharolytica (MET^R) MMX 3552; assay: MIC, anaerobic agar dilution (CLSI); assay type: cell-based; conditions: 35° C., 42-48 hours
Gardnerella = assay: MIC, agar dilution, Gardnerella; assay type: cell-based; conditions: Gardnerella as major BV bacteria
[24] = test system: Bacteroides ovatus (MET^R) MMX 3504; assay: MIC, anaerobic agar dilution (CLSI); assay type: cell-based; conditions: 35° C., 42-48 hours
[25] = test system: Bacteroides fragilis (QC) ATCC 25285; assay: MIC, anaerobic agar dilution (CLSI); assay type: cell-based; conditions: ATCC25285, 35° C., 42-48 hours
[26] = test system: Treponema denticola ATCC 35405; assay: MIC, anaerobic agar dilution (CLSI); assay type: cell-based; conditions: ATCC35405, 35° C., 42-48 hours
[27] = test system: Prevotella bivia (MET^R) MMX 3454; assay: MIC, anaerobic agar dilution (CLSI); assay type: cell-based; conditions: 35° C., 42-48 hours
[28] = test system: Bacteroides thetaiotaomicron (MET^R) MMX 3409; assay: microbe, parasite or virus in culture; assay type: cell-based
[29] = test system: Peptostreptococcus anaerobius ATCC 27337; assay: MIC, anaerobic agar dilution (CLSI); assay type: cell-based; conditions: ATCC27337, 35° C., 42-48 hours
[30] = test system: Bacteroides fragilis (MET^R) MMX 3387; assay: MIC, anaerobic agar dilution (CLSI); assay type: cell-based
[31] = test system: Bifidobacterium (breve) ATCC 15698; assay: MIC, anaerobic agar dilution (CLSI); assay type: cell-based; conditions: ATCC15698, 35° C., 42-48 hours
[32] = test system: Peptoniphilus asaccharolyticus ATCC 29743; assay: MIC, anaerobic agar dilution (CLSI); assay type: cell-based; conditions: ATCC29743, 35° C., 42-48 hours
[33] = test system: Bacteroides vulgatus (MET^R) MMX 3490; assay: MIC, anaerobic agar dilution (CLSI); assay type: cell-based; conditions: Phocaeicola vulgatus
[34] = test system: Bacteroides fragilis (QC) ATCC 25285; conditions: range printed in parentheses; cited from earlier work
[35] = test system: Prevotella bivia MMX 3450; assay: MIC, anaerobic agar dilution (CLSI); assay type: cell-based; conditions: MMX3450, 35° C., 42-48 hours
[36] = test system: Prevotella intermedia ATCC 25611; assay: MIC, anaerobic agar dilution (CLSI); assay type: cell-based; conditions: ATCC25611, 35° C., 42-48 hours
[37] = test system: Anaerococcus (Anaerococcus(prevotii)) ATCC 9321; assay: MIC, anaerobic agar dilution (CLSI); assay type: cell-based; conditions: 35° C., 42-48 hours
[38] = test system: Prevotella disiens MMX 3457; assay: MIC, anaerobic agar dilution (CLSI); assay type: cell-based; conditions: MMX3457, 35° C., 42-48 hours
Escherichia coli = conditions: several bacteria such as Escherichia coli; U.S. Pat. No. 7,678,791 B2; cited from earlier work

Structure (SMILES): Cc1ncc([N+](=O)[O-])n1CCO [Metronidazole]
- MIC [1]: 8 µg/mL (≈ 46.7 µM)
- MIC [2]: 4 µg/mL (≈ 23.4 µM)
- MIC [3]: 1 µg/mL (≈ 5.84 µM)
- MIC ([4]; Bacteroides uniformis): > 256 µg/mL
- MIC [5]: 0.5 µg/mL (≈ 2.92 µM)
- MIC [6]: 2 µg/mL (≈ 11.7 µM)
- MIC [7]: 2 µg/mL (≈ 11.7 µM)
- MIC [8]: 1 µg/mL (≈ 5.84 µM)
- MIC [9]: 0.06 µg/mL (≈ 0.351 µM)
- MIC [10]: 0.06 µg/mL (≈ 0.351 µM)
- MIC [11]: 1 µg/mL (≈ 5.84 µM)
- MIC (Atopobium vaginae BAA-55): 128 µg/mL (≈ 748 µM)
- MIC [12]: > 256 µg/mL
- MIC ([13]; Lactobacillus gasseri): > 256 µg/mL
- MIC [14]: 0.5 µg/mL (≈ 2.92 µM)
- MIC [15]: 0.5 µg/mL (≈ 2.92 µM)
- MIC [16]: > 256 µg/mL
- MIC ([17]; Lactobacillus crispatus): > 256 µg/mL
- MIC ([18]; Lactobacillus jensenii): > 256000 ng/mL
- MIC [19]: 0.5 µg/mL (≈ 2.92 µM)
- MIC [20]: 2 µg/mL (≈ 11.7 µM)
- recurrence rate (Bacterial Vaginosis (BV)): up to 58%
- MIC [21]: 4 µg/mL (≈ 23.4 µM)
- MIC [22]: 256 µg/mL (≈ 1500 µM)
- MIC [23]: 1 µg/mL (≈ 5.84 µM)
- MIC (Gardnerella): 4 µg/mL (≈ 23.4 µM)
- MIC [24]: 2 µg/mL (≈ 11.7 µM)
- MIC [25]: 1 µg/mL (≈ 5.84 µM)
- MIC [26]: 0.5 µg/mL (≈ 2.92 µM)
- MIC [27]: 0.5 µg/mL (≈ 2.92 µM)
- MIC ([28]; Bacteroides thetaiotaomicron): 2 µg/mL (≈ 11.7 µM)
- MIC [29]: 0.25 µg/mL (≈ 1.46 µM)
- MIC ([30]; Bacteroides fragilis): > 256 µg/mL
- MIC [31]: 8 µg/mL (≈ 46.7 µM)
- MIC [32]: 0.5 µg/mL (≈ 2.92 µM)
- MIC [33]: 128 µg/mL (≈ 748 µM)
- MIC range in parentheses (QC strain reference range) [34]: 0.25 to 1 µg/mL
- MIC [35]: 1 µg/mL (≈ 5.84 µM)
- MIC [36]: 1 µg/mL (≈ 5.84 µM)
- MIC [37]: 2 µg/mL (≈ 11.7 µM)
- MIC [38]: 0.5 µg/mL (≈ 2.92 µM)

Structure (SMILES): CO[C@H]1/C=C/O[C@@]2(C)Oc3c(C)c(O)c4c(c3C2=O)C2=NC3(CCN(CCn5c([N+](=O)[O-])cnc5C)CC3)NC2=C(NC(=O)/C(C)=C\C=C\[C@H](C)[C@H](O)[C@@H](C)[C@@H](O)[C@@H](C)[C@H](OC(C)=O)[C@@H]1C)C4=O [Compound I, 4-deoxy-3,4-[2-spiro-[2-(2-methyl-5-nitro-imidazole-1-yl)ethyl]-piperidine-4-yl]-(1-hydrogen)-imidazo-(2,5-dihydro) rifamycin S]
- MIC [1]: 0.015 µg/mL (≈ 0.0159 µM)
- MIC [2]: 0.004 µg/mL (≈ 0.00424 µM)
- MIC [3]: 0.03 µg/mL (≈ 0.0318 µM)
- MIC ([4]; Bacteroides uniformis MMX 1277, anaerobic, 35° C., 42-48 hours, read-out: MIC): 0.03 µg/mL (≈ 0.0318 µM)
- MIC [5]: 0.015 µg/mL (≈ 0.0159 µM)
- MIC [6]: 0.002 µg/mL (≈ 0.00212 µM)
- MIC [7]: 0.001 µg/mL (≈ 0.00106 µM)
- MIC [8]: 0.015 µg/mL (≈ 0.0159 µM)
- MIC [9]: 0.12 µg/mL (≈ 0.127 µM)
- MIC [10]: 0.015 µg/mL (≈ 0.0159 µM)
- MIC [11]: 0.0005 µg/mL (≈ 0.00053 µM)
- MIC (Atopobium vaginae BAA-55; Atopobium vaginae BAA-55, anaerobic, 35° C., 42-48 hours, read-out: MIC): 0.03 µg/mL (≈ 0.0318 µM)
- MIC ([12]; Bacteroides gracilis ATCC 33236, anaerobic, 35° C., 42-48 hours, read-out: MIC): 0.5 µg/mL (≈ 0.53 µM)
- MIC ([13]; Lactobacillus gasseri ATCC 33323, anaerobic, 35° C., 42-48 hours, read-out: MIC): 0.015 µg/mL (≈ 0.0159 µM)
- MIC [14]: 0.001 µg/mL (≈ 0.00106 µM)
- MIC [15]: 0.0005 µg/mL (≈ 0.00053 µM)
- MIC [16]: 2 µg/mL (≈ 2.12 µM)
- MIC ([17]; Lactobacillus crispatus ATCC 33820, anaerobic, 35° C., 42-48 hours, read-out: MIC): 4 µg/mL (≈ 4.24 µM)
- MIC ([18]; Lactobacillus jensenii ATCC 25258, anaerobic, 35° C., 42-48 hours, read-out: MIC): 8 ng/mL (≈ 0.00847 µM)
- MIC [19]: 0.0005 µg/mL (≈ 0.00053 µM)
- MIC [20]: 2 µg/mL (≈ 2.12 µM)
- MIC [21]: 0.004 µg/mL (≈ 0.00424 µM)
- MIC [22]: 0.001 µg/mL (≈ 0.00106 µM)
- MIC [23]: 0.008 µg/mL (≈ 0.00847 µM)
- MIC (Gardnerella): 0.004 µg/mL (≈ 0.00424 µM)
- MIC [24]: 0.12 µg/mL (≈ 0.127 µM)
- MIC [25]: 0.03 µg/mL (≈ 0.0318 µM)
- MIC [26]: 0.002 µg/mL (≈ 0.00212 µM)
- MIC [27]: 0.015 µg/mL (≈ 0.0159 µM)
- MIC ([28]; Bacteroides thetaiotaomicron (MET^R) MMX 3409, anaerobic, 35° C., 42-48 hours, read-out: MIC): 0.03 µg/mL (≈ 0.0318 µM)
- MIC [29]: 0.002 µg/mL (≈ 0.00212 µM)
- MIC ([30]; Bacteroides fragilis (MET^R) MMX 3387, anaerobic, 35° C., 42-48 hours, read-out: MIC): 0.015 µg/mL (≈ 0.0159 µM)
- MIC [31]: 0.015 µg/mL (≈ 0.0159 µM)
- MIC [32]: 0.008 µg/mL (≈ 0.00847 µM)
- MIC ([33]; Bacteroides vulgatus (MET^R) MMX 3490, anaerobic, 35° C., 42-48 hours, read-out: MIC): 0.03 µg/mL (≈ 0.0318 µM)
- antimicrobial activity (Escherichia coli): has antimicrobial activity
- MIC [35]: 0.0005 µg/mL (≈ 0.00053 µM)
- MIC [36]: 0.0005 µg/mL (≈ 0.00053 µM)
- MIC [37]: 0.0005 µg/mL (≈ 0.00053 µM)
- MIC [38]: 0.008 µg/mL (≈ 0.00847 µM)
